Here are results for one compound from patent US20170258756A1, “A Method for Topically Treating Actinic Keratosis on the Scalp with Ingenol 3-(3,5-diethylisoxazole-4-carboxylate)” (LEO Laboratories Limited, priority 2014, published 2017).

Data set [1] relates to actinic keratosis on the scalp. Put plainly: Part 1 dose escalation trial, gel once daily for two consecutive days on the scalp (LSR / DLT). The class given is in vivo, human. An excerpt: Local skin reactions (LSRs) occurs sometimes in the treated area. Often LSRs are quantified by a scale evaluating the following types of skin reactions: erythema, flaking/scaling, crusting, swelling, vasiculation/postulation, and erosion/ulceration which are categorized into categories 0-4 depending on the severity of the reactions.
Dose Limiting toxicity (DLT) is defined as the following LSR: […]
Erosion/ulceration grade 4.
Or other clinically relevant signs or symptoms observed, which the Investigator judges to be counted as a DLT. Maximum tolerated dose (MTD) is declared as dose level at which less than 4 subjects out of experience a DLT of cohort of 12 subjects.
Part 1 was a dose escalation study conducted with a once daily application of trial medication for two consecutive days and continued until the MTD was identified.
Dose escalation proceeded if the safety and tolerability data of the subject up to day 8 was reviewed and considered satisfactory. The treatment consisted of once daily treatment for 2 consecutive days. Up to 5 different doses may be investigated in cohorts of […]. The number of subjects in each cohort depended on the number of observed DLTs. However, the MTD was always be confirmed in a cohort of 12 subjects. […] Dose escalation was stopped at the 0.075% dose level as the investigators in this study felt that the application site adverse events, although manageable, could pose a problem for some patients. […] Part 2 is a study of the efficacy of the 0.037% dose identified in part 1 in a three day regimen.
Part 1: Trial medication, ingenol 3-(3,5-diethylisoxazole-4-carboxylate) gel, will be applied to the treatment area once daily for two consecutive days until the maximum tolerated dose has been reached for each formulation. Up to five different doses of active compound in gel may be investigated in cohorts 12 subjects.
Predefined grades of Local Skin Responses (LSRs) will constitute dose limiting toxicity (DLT). The maximum tolerated dose is defined as the highest dose level at which less than 4 out of12 subjects experience a Dose limiting toxicity.
The doses will be administered in an escalating manner following review of safety and tolerability data performed by the dose escalation committee. Evaluation of the safety and tolerability data will be performed after Visit 5/day 8. Then subjects will be followed for 8 weeks after first application of investigational product.

The next data set has as its system dermal tumours. Put plainly: in vivo studies in mice, effects on dermal tumours. To be noted: compared with ingenol mebutate. An excerpt:
The exact mechanism of action of ingenol 3-(3,5-diethylisoxazole-4-carboxylate) continues to be investigated, but it is believed that ingenol 3-(3,5-diethylisoxazole-4-carboxylate) has a dual mechanism of action inducing cell death as well as stimulation of immune response.

The subject of data set [2] is actinic keratosis on the scalp. Put plainly: Part 2 open label trial, 0.037% gel once daily for three consecutive days on the scalp. The class given is in vivo, human. An excerpt: The outcome for Part 2 is safety and efficacy in a once daily application for three consecutive days on the scalp. The efficacy in treating of the AK will be measured as reduction in AK count in the treated area of lesions which are not considered hyperkeratotic/hypertrophic.
In parallel the efficacy in treating of the AK will be measured as reduction in AK count in the treated area of lesions which are considered hyperkeratotic/hypertrophic.
The reduction in AK count will be performed at week 4 and 8 no matter the type of lesion. Also complete clearance of AKs in the treated area which are not considered hyperkeratotic/hypertrophic at week 8 will be measured.
To qualify for part 2 of the trial, the subjects must have 5-20 clinically visible and discrete AKs within 250 cm^2 area on the balding scalp (The balding part of the scalp should be greater than 25 cm^2 and up to approximately 250 cm^2). In addition to the requirement of 5-20 clinically typical, visible and discrete AKs within the selected treatment area, subjects may also have visible and discrete hyperkeratotic/hypertrophic lesions in this area. The subjects will be treated with a dose of 0.037% as a once daily three consecutive days treatment and followed for 8 weeks.
The trial consists of an initial part, where 18 subjects will be treated on the scalp. […] As this is a safety trial, it is considered justified to conduct this clinical trial as an open-label, uncontrolled trial. An early safety and tolerability evaluation will be performed following the 3 days treatment. If safety and tolerability is found acceptable by the Early Data Review Committee, and additional 44 subjects will be enrolled in order to expand safety observations and obtain an estimate of treatment efficacy.
The patients are scheduled for 7 visits: • Visit 1: within 21 days prior to day 1 • Visit 2: day 1 (application of trial medication) • Visit 3: […] (application of trial medication) • Visit 4: day 8 (+2 day) • Visit 5: week 2 (±2 day) • Visit 6: week 4 (±4 day) • Visit 7: week 8 (±7 day)
LSRs are evaluated at all visits following visit 1. AK lesion counts are performed on Visit 2, 6 and 7.
At Baseline (Day 1) and Visit 7 (Week 8), the investigator will make a clinical (visual and tactile) assessment of the extent of photo-damage in the treatment area with respect to 1) fine wrinkling, 2) coarse wrinkling, 3) mottled pigmentation, 4) roughness, 5) sallowness, 6) skin laxity, and 7) telangiectasia. Severity for each of these characteristics will be on a 5-point scale: None (0), Mild (1), Moderate (2), Severe (3), Extreme (4).
At Visit 7 (Week 8) the Investigator will make an overall clinical (visual and tactile) assessment of the subject's photo-damage change from baseline in the treatment area (including an integrated assessment of fine wrinkling, coarse wrinkling, mottled pigmentation, roughness, sallowness, skin laxity, and telangiectasia based on the subject's appearance at the baseline visit).
At Visit 7 (Week 8), the subjects will complete a self-assessment questionnaire evaluating the change in the 1) overall appearance of the skin and 2) overall feel of the skin after treatment. The scoring will be on a 5-point scale: Much worsened, Somewhat worsened, No change, somewhat improved, much improved.
The secondary response criteria will be analysed for the full analysis set and for the per protocol analysis set. The ratio of number of AK lesions at week 8 relative to baseline, excluding lesions identified at base line as hyperkeratotic/hypertrophic lesions, will be tabulated by treatment group. Separately for each treatment group, the rate and corresponding 95% confidence interval will be estimated from a negative binomial regression on the AK count at week 8 with the log baseline value as an offset variable. The same analysis will be performed for the subgroup of lesions identified as hyperkeratotic/hypertrophic at baseline. […]

As to `CCc1noc(CC)c1C(=O)O[C@H]1C(C)=C[C@]23C(=O)[C@@H](C=C(CO)[C@@H](O)[C@]12O)[C@H]1[C@@H](C[C@H]3C)C1(C)C` [ingenol 3-(3,5-diethylisoxazole-4-carboxylate)], in data set [1] (0.037%, two days dosing regimen), the “tolerability of selected dose with respect to LSRs and application site reaction” value was “well tolerated”. Besides, in data set [1] (two day regimen, dose escalation up to 0.075%), the “subjects meeting dose limiting toxicity (DLT) criteria” value was “no subjects met the predefined criteria for DLT”. The “dose level at which dose escalation was stopped” value in data set [1] (two day regimen, stopped because of application site adverse events, manageable) was determined as 0.075%. Moreover, the “tolerability of 0.037% and 0.05% doses” value in data set [1] (two day treatment, compared with 0.075%) is “clearly better tolerated”. Besides, the “efficacy in eliminating dermal tumours” value in the data set with dermal tumours was “more efficacious than ingenol mebutate”. The “reduction in AK count” value in data set [2] (once daily three consecutive days, scalp, 62 patients, week 8) is listed as 79%. In data set [2] (once daily three consecutive days, scalp, week 8), the complete clearance amounted to 40%. Besides, in data set [2] (three day regimen, cosmetic outcome self-assessment, % of subjects), the “improvement in appearance and feel reported by subjects” value is reported as “more than 90%”. Further, the “photo damage improved, share of patients” value in data set [2] (three day regimen, investigator assessment) is “two-thirds”. Further, the “time at which side-effects maximize” value in data set [2] (three day regimen, rapid decline thereafter) came to 4 days. In addition, in data set [2] (three day regimen, scalp), the side-effects entry is listed as “considered acceptable”.
